Consider six compounds from ChEMBL document CHEMBL1671722, “Comparative in vitro activity profiles of novel bis-indole antibacterials against gram-positive and gram-negative clinical isolates” (Antimicrob Agents Chemother, 2010).

In brackets after ≈: the same amount, converted by molar mass.

Common to all, as to format: functional
One test deals with Haemophilus influenzae. The experiment in a line: Antimicrobial activity against Haemophilus influenzae by broth microdilution method. (In general: In broth dilution the organism is exposed to a series of concentrations in liquid medium.)
The test system of test [1] is Staphylococcus aureus. Nature of the test: Antimicrobial activity against methicillin-susceptible Staphylococcus aureus by broth microdilution method.
For test [2], the system named is Staphylococcus aureus. The experiment in a line: Antimicrobial activity against methicillin-resistant Staphylococcus aureus by broth microdilution method.
Test [3] concerns Staphylococcus epidermidis. Nature of the test: Antimicrobial activity against methicillin-resistant Staphylococcus epidermidis by broth microdilution method.
Another test has as its system Streptococcus agalactiae. The experiment in a line: Antimicrobial activity against Streptococcus agalactiae by broth microdilution method.
For test [4], the system named is Streptococcus pneumoniae. Nature of the test: Antimicrobial activity against penicillin-resistant Streptococcus pneumoniae by broth microdilution method.
Test [5] concerns Streptococcus pneumoniae. Nature of the test: Antimicrobial activity against penicillin-intermediate Streptococcus pneumoniae by broth microdilution method.
The test system of test [6] is Enterococcus faecalis. The experiment in a line: Antimicrobial activity against vancomycin-susceptible Enterococcus faecalis by broth microdilution method.
In test [7] the test system is Enterococcus faecium. Nature of the test: Antimicrobial activity against vancomycin-resistant Enterococcus faecium by broth microdilution method.
Test [8] concerns Enterococcus faecium. The experiment in a line: Antimicrobial activity against vancomycin-susceptible Enterococcus faecium by broth microdilution method.
Test [9] concerns Streptococcus pneumoniae. Nature of the test: Antimicrobial activity against penicillin-susceptible Streptococcus pneumoniae by broth microdilution method.
In test [10] the test system is Enterococcus faecalis. Nature of the test: Antimicrobial activity against vancomycin-resistant Enterococcus faecalis by broth microdilution method.
The subject of test [11] is Staphylococcus epidermidis. The experiment in a line: Antimicrobial activity against methicillin-susceptible Staphylococcus epidermidis by broth microdilution method.
The test system of another test is Clostridioides difficile. Nature of the test: Antimicrobial activity against Clostridium difficile by broth microdilution method.
Test [12] has as its system Acinetobacter baumannii. Nature of the test: Antimicrobial activity against Acinetobacter baumannii by broth microdilution method.
Test [13] has as its system Acinetobacter baumannii. The experiment in a line: Antimicrobial activity against multiple dug-resistant Acinetobacter baumannii by broth microdilution method.
The test system of the next test is Pseudomonas aeruginosa. Nature of the test: Antimicrobial activity against Pseudomonas aeruginosa by broth microdilution method.
Another test relates to Proteus mirabilis. The experiment in a line: Antimicrobial activity against Proteus mirabilis by broth microdilution method.
Test [14] has as its system Klebsiella pneumoniae. The experiment in a line: Antimicrobial activity against ESBL-production Klebsiella pneumoniae by broth microdilution method.
For a further test, the system named is Burkholderia cepacia. Nature of the test: Antimicrobial activity against Burkholderia cepacia by broth microdilution method.
Test [15] relates to Klebsiella pneumoniae. Nature of the test: Antimicrobial activity against Klebsiella pneumoniae by broth microdilution method.
The test system of a further test is Escherichia coli. The experiment in a line: Antimicrobial activity against Escherichia coli by broth microdilution method.
The next test concerns Serratia marcescens. Nature of the test: Antimicrobial activity against Serratia marcescens by broth microdilution method.

Regarding `C[C@H]1COc2c(N3CCN(C)CC3)c(F)cc3c(=O)c(C(=O)O)cn1c23.C[C@H]1COc2c(N3CCN(C)CC3)c(F)cc3c(=O)c(C(=O)O)cn1c23.O` [LEVOFLOXACIN], in the test on Haemophilus influenzae, the MIC was 0.08 µg/mL, the MIC50 turned out to be 0.015 µg/mL and the MIC90 is 0.06 µg/mL.

As for `CC(=O)NC[C@H]1CN(c2ccc(N3CCOCC3)c(F)c2)C(=O)O1` [LINEZOLID], the MIC50 in the test with Staphylococcus aureus [1] was determined as 2 µg/mL (≈ 5.93 µM); with Staphylococcus aureus [2] it was 2 µg/mL (≈ 5.93 µM); in [3], 1 µg/mL (≈ 2.96 µM); in the test with Streptococcus agalactiae, 1 µg/mL (≈ 2.96 µM); against Streptococcus pneumoniae [4], 1 µg/mL (≈ 2.96 µM); in the test on Streptococcus pneumoniae [5], 1 µg/mL (≈ 2.96 µM). Besides, the MIC50 against Enterococcus faecalis [6] was 2 µg/mL (≈ 5.93 µM); in the test on Enterococcus faecium [7] it was 2 µg/mL (≈ 5.93 µM); in the test on Enterococcus faecium [8], 2 µg/mL (≈ 5.93 µM); against Streptococcus pneumoniae [9], 1 µg/mL (≈ 2.96 µM); with Enterococcus faecalis [10], 1 µg/mL (≈ 2.96 µM); in test [11], 1 µg/mL (≈ 2.96 µM). In addition, the MIC90 against Staphylococcus aureus [1] was determined as 4 µg/mL (≈ 11.9 µM); against Staphylococcus aureus [2], 4 µg/mL (≈ 11.9 µM); in test [3], 2 µg/mL (≈ 5.93 µM); in the test on Streptococcus agalactiae, 2 µg/mL (≈ 5.93 µM); against Streptococcus pneumoniae [4] it was 1 µg/mL (≈ 2.96 µM); in the test on Streptococcus pneumoniae [5], 1 µg/mL (≈ 2.96 µM). Besides, the MIC90 in the test on Enterococcus faecalis [6] is 2 µg/mL (≈ 5.93 µM); against Enterococcus faecium [7] it was 2 µg/mL (≈ 5.93 µM); in the test on Enterococcus faecium [8] it was 4 µg/mL (≈ 11.9 µM); against Streptococcus pneumoniae [9], 2 µg/mL (≈ 5.93 µM); in the test with Enterococcus faecalis [10] it was 1 µg/mL (≈ 2.96 µM); in [11], 2 µg/mL (≈ 5.93 µM). The MIC in test [3] is 1 µg/mL (≈ 2.96 µM); against Streptococcus agalactiae, 1 µg/mL (≈ 2.96 µM); in the test with Enterococcus faecium [8], 2 µg/mL (≈ 5.93 µM).

In the case of `Cc1ncc([N+](=O)[O-])n1CCO` [METRONIDAZOLE], in the test with Clostridioides difficile, the MIC50 was found to be 0.12 µg/mL (≈ 0.701 µM) and the MIC90 was 0.5 µg/mL (≈ 2.92 µM).

For the compound `CN(C)c1cc(NC(=O)CNC(C)(C)C)c(O)c2c1C[C@H]1C[C@H]3[C@H](N(C)C)C(O)=C(C(N)=O)C(=O)[C@@]3(O)C(O)=C1C2=O` [TIGECYCLINE], the MIC50 was 0.25 µg/mL (≈ 0.427 µM) with Acinetobacter baumannii [12]; 0.5 µg/mL (≈ 0.854 µM) against Acinetobacter baumannii [13]; 0.5 µg/mL (≈ 0.854 µM) in the test on Pseudomonas aeruginosa; 0.5 µg/mL (≈ 0.854 µM) against Proteus mirabilis; 0.03 µg/mL (≈ 0.0512 µM) in the test on Klebsiella pneumoniae [14]; more than 8 µg/mL against Burkholderia cepacia. Moreover, the results for the MIC50 against Klebsiella pneumoniae [15], in the test on Escherichia coli and in the test with Serratia marcescens were 1 µg/mL (≈ 1.71 µM), 0.12 µg/mL (≈ 0.205 µM) and 0.5 µg/mL (≈ 0.854 µM), respectively. The MIC90 against Acinetobacter baumannii [12] was more than 8 µg/mL; in the test on Acinetobacter baumannii [13], 2 µg/mL (≈ 3.41 µM); against Pseudomonas aeruginosa, more than 32 µg/mL; against Proteus mirabilis it was more than 32 µg/mL; with Klebsiella pneumoniae [14] it was more than 2 µg/mL; against Burkholderia cepacia, more than 8 µg/mL. In addition, the MIC90 against Klebsiella pneumoniae [15] is more than 8 µg/mL; with Escherichia coli it was 0.25 µg/mL (≈ 0.427 µM); in the test on Serratia marcescens, 2 µg/mL (≈ 3.41 µM). The MIC against Escherichia coli is 0.12 µg/mL (≈ 0.205 µM).

`CN[C@H](CC(C)C)C(=O)N[C@H]1C(=O)N[C@@H](CC(N)=O)C(=O)N[C@H]2C(=O)N[C@H]3C(=O)N[C@H](C(=O)N[C@H](C(=O)O)c4cc(O)cc(O)c4-c4cc3ccc4O)[C@H](O)c3ccc(c(Cl)c3)Oc3cc2cc(c3O[C@@H]2O[C@H](CO)[C@@H](O)[C@H](O)[C@H]2O[C@H]2C[C@](C)(N)[C@H](O)[C@H](C)O2)Oc2ccc(cc2Cl)[C@H]1O` [VANCOMYCIN]: the MIC50 in the test with Staphylococcus aureus [1] stood at 0.5 µg/mL (≈ 0.345 µM); against Staphylococcus aureus [2], 0.5 µg/mL (≈ 0.345 µM); in test [3], 2 µg/mL (≈ 1.38 µM); with Streptococcus agalactiae, 1 µg/mL (≈ 0.69 µM); in the test on Streptococcus pneumoniae [4] it was 0.25 µg/mL (≈ 0.173 µM); against Streptococcus pneumoniae [5] it was 0.25 µg/mL (≈ 0.173 µM). For the same compound, the MIC50 was 1 µg/mL (≈ 0.69 µM) in the test with Enterococcus faecalis [6]; more than 64 µg/mL against Enterococcus faecium [7]; 0.5 µg/mL (≈ 0.345 µM) against Enterococcus faecium [8]; 0.25 µg/mL (≈ 0.173 µM) against Streptococcus pneumoniae [9]; more than 64 µg/mL against Enterococcus faecalis [10]. Besides, the MIC90 against Staphylococcus aureus [1] was determined as 1 µg/mL (≈ 0.69 µM); in the test on Staphylococcus aureus [2], 1 µg/mL (≈ 0.69 µM); in test [3], 2 µg/mL (≈ 1.38 µM); against Streptococcus agalactiae, 1 µg/mL (≈ 0.69 µM); with Streptococcus pneumoniae [4], 0.25 µg/mL (≈ 0.173 µM); in the test with Streptococcus pneumoniae [5] it was 0.25 µg/mL (≈ 0.173 µM). The MIC90 in the test with Enterococcus faecalis [6] is 2 µg/mL (≈ 1.38 µM); against Enterococcus faecium [7], more than 64 µg/mL; against Enterococcus faecium [8] it was 1 µg/mL (≈ 0.69 µM); in the test with Streptococcus pneumoniae [9], 0.25 µg/mL (≈ 0.173 µM); against Enterococcus faecalis [10], more than 64 µg/mL; in test [11], 2 µg/mL (≈ 1.38 µM). The MIC with Streptococcus pneumoniae [4] was 0.25 µg/mL (≈ 0.173 µM); in the test on Streptococcus pneumoniae [5] it was 0.25 µg/mL (≈ 0.173 µM); in the test with Enterococcus faecalis [10], more than 64 µg/mL.

For the compound GENTAMICIN, the MIC50 amounted to 0.06 µg/mL with Acinetobacter baumannii [12]; 0.5 µg/mL against Acinetobacter baumannii [13]; 2 µg/mL against Pseudomonas aeruginosa; 1 µg/mL against Proteus mirabilis; 0.25 µg/mL in the test with Klebsiella pneumoniae [14]; 0.5 µg/mL in the test with Burkholderia cepacia. The MIC50 with Klebsiella pneumoniae [15] is 0.5 µg/mL; against Escherichia coli it was 1 µg/mL; against Serratia marcescens it was 4 µg/mL. Further, the MIC90 is more than 8 µg/mL against Acinetobacter baumannii [12]; 4 µg/mL in the test with Acinetobacter baumannii [13]; more than 32 µg/mL against Pseudomonas aeruginosa; 8 µg/mL in the test on Proteus mirabilis; 1 µg/mL against Klebsiella pneumoniae [14]; more than 8 µg/mL in the test with Burkholderia cepacia. The MIC90 in the test with Klebsiella pneumoniae [15] turned out to be 2 µg/mL; against Escherichia coli, 1 µg/mL; with Serratia marcescens it was 4 µg/mL.
